Starred links: 1 amine or outer side, 2 acyl side, 3 side chain; linkers in the order of their positions; H or OH if unused. Positions of bridges follow the written chain, without caps; N, C: chain ends. Residues, ends and D or L forms follow the SMILES beside them. Suc = O=C(CCC(=O)[*:2])[*:1]
Legend:
[1] = tested on: H1N1 A/Brisbane/59/2007 (H1/Bri) HA; assay type: biochemical, influenza A virus; details: pH 5.25
[2] = tested on: H1/NCa HA (A/New Caledonia/20/1999 (H1N1)); assay type: binding, influenza A virus
[3] = tested on: group 1 H1/Cal, H1/NCa, and H5/Viet HAs; assay type: binding, influenza A virus; details: read-out: IC50 in AlphaLISA (range over HAs)
[4] = tested on: H1/Cal HA (A/California/07/2009 (H1N1)); assay type: binding, influenza A virus
[5] = tested on: H5/Viet HA (A/Vietnam/1203/2004 (H5N1)); assay type: binding, influenza A virus
[6] = biological target: group 1 H1/Cal, H1/NCa, and H5/Viet HAs; assay type: binding, influenza A virus; details: for Kd: read-out: KD by SPR (range over HAs)
[7] = tested on: HAs from group 2 and influenza B viruses; assay type: binding, influenza A and B viruses
[8] = In vitro cell permeability assay; details: pig; for efflux ratio at 120 min, 30 nM / Papp B→A at 120 min, 30 nM: LLC-Parent; for Papp B→A at 120 min, 30 nM: basolateral to apical
P-gp (MDR1) = test: In vitro cell permeability / P-gp substrate assay; details: pig; for Papp A→B at 120 min, 30 nM: LLC-MDR1, apical to basolateral; for Papp B→A at 120 min, 30 nM: LLC-MDR1, basolateral to apical
[9] = tested on: H5/Viet virus (A/Vietnam/1203/2004 (H5N1))
[10] = LLC-PK1, pH 7.4, Papp BA, no inhibitor
[11] = LLC-PK1, pH 7.4, with elacridar (GF120918) 5 µM, Papp BA, + 5 µM GF120918

Compound: CSCC[C@@H]1NC(=O)CNC(=O)CNC(=O)[C@H](C)NC(=O)[C@H](C(C)C)NC(=O)CNC(=O)[C@H](CC(C)C)NC(=O)[C@@H]2CCCN2C(=O)[C@H](CC(=O)O)NC(=O)[C@H](CCCNC(=N)N)NC(=O)[C@H](Cc2ccc(O)cc2)NC(=O)[C@H](CC(C)C)NC(=O)[C@@H](NC(=O)CCC(=O)O)CSSC[C@@H](C(N)=O)NC(=O)CNC1=O [CP8]
- IC50 [1]: 0.54 ± 0.01 µM
- IC50 [2]: 0.16 ± 0.02 µM
- IC50 [3]: 0.11 to 1.55 µM
- IC50 [4]: 0.11 µM
- IC50 [5]: 1.55 ± 0.29 µM
- Kd [6]: 0.32 to 0.33 µM

Compound: CSCC[C@H](NC(=O)CNC(=O)CNC(=O)[C@H](C)NC(=O)[C@@H](NC(=O)CNC(=O)[C@H](CC(C)C)NC(=O)[C@@H]1CCCN1C(=O)[C@H](CC(=O)O)NC(=O)[C@H](CCCNC(=N)N)NC(=O)[C@H](Cc1ccc(O)cc1)NC(=O)[C@H](CC(C)C)NC(=O)[C@H](CO)NC(=O)[C@@H](NC(=O)CCC(=O)O)C(C)C)C(C)C)C(=O)NCC(=O)N[C@H](C(=O)N[C@@H](Cc1ccc(O)cc1)C(N)=O)C(C)C [LP1]
- Binding to HAs of group 2 and influenza B viruses [7]: no binding was observed
- IC50 [2]: 22.9 ± 4.14 µM
- IC50 [3]: 11 to 47 µM
- IC50 [4]: 11.5 ± 2.5 µM
- IC50 [5]: 47.9 ± 3.77 µM
- Kd [6]: 3 to 7 µM

Compound: C[C@H]1O[C@@H](O[C@H]2[C@@H](O)C[C@H](O[C@H]3[C@@H](O)C[C@H](O[C@H]4CC[C@@]5(C)[C@H](CC[C@@H]6[C@@H]5C[C@@H](O)[C@]5(C)[C@@H](C7=CC(=O)OC7)CC[C@]65O)C4)O[C@@H]3C)O[C@@H]2C)C[C@H](O)[C@@H]1O [3H-Digoxin, Digoxin, reference compound]
- Papp A→B at 120 min, 30 nM ([8]; LLC-PK1, pH 7.4): 2.45 ± 0.1 ×10⁻⁶ cm/s
- efflux ratio at 120 min, 30 nM ([8]; LLC-PK1, pH 7.4, Efflux ratio BA/AB, no inhibitor): 0.94
- Papp B→A at 120 min, 30 nM [8, 10]: 2.31 ± 0.15 ×10⁻⁶ cm/s
- efflux ratio at 120 min, 30 nM ([8]; LLC-PK1, pH 7.4, with elacridar (GF120918) 5 µM, Efflux ratio BA/AB, + 5 µM GF120918): 0.9
- Papp B→A at 120 min, 30 nM [8, 11]: 2.37 ± 0.08 ×10⁻⁶ cm/s
- efflux ratio at 120 min, 30 nM (P-gp (MDR1); LLC-PK1, pH 7.4, Efflux ratio BA/AB, LLC-MDR1, no inhibitor): 22.6
- Papp A→B at 120 min, 30 nM (P-gp (MDR1); LLC-PK1, pH 7.4, Papp AB, no inhibitor): 0.45 ± 0.08 ×10⁻⁶ cm/s
- Papp B→A at 120 min, 30 nM (P-gp (MDR1); [10]): 10.3 ± 0.2 ×10⁻⁶ cm/s
- efflux ratio at 120 min, 30 nM (P-gp (MDR1); LLC-PK1, pH 7.4, with elacridar (GF120918) 5 µM, Efflux ratio BA/AB, LLC-MDR1, + 5 µM GF120918): 0.91
- Papp A→B at 120 min, 30 nM (P-gp (MDR1); LLC-PK1, pH 7.4, with elacridar (GF120918) 5 µM, Papp AB, + 5 µM GF120918): 2.98 ± 0.15 ×10⁻⁶ cm/s
- Papp B→A at 120 min, 30 nM (P-gp (MDR1); [11]): 2.72 ± 0.05 ×10⁻⁶ cm/s

Compound: CSCC[C@@H]1NC(=O)CNC(=O)CNC(=O)[C@H](C)NC(=O)[C@H](C(C)C)NC(=O)CNC(=O)[C@H](CC(C)C)NC(=O)[C@@H]2CCCN2C(=O)[C@H](CC(=O)O)NC(=O)[C@H](CCC(=O)O)NC(=O)[C@H](Cc2ccc(O)cc2)NC(=O)[C@H](CC(C)C)NC(=O)[C@@H](NC(=O)CCC(=O)O)CSSC[C@@H](C(N)=O)NC(=O)CNC1=O [CP9]
- IC50 [1]: 0.23 ± 0.02 µM
- IC50 [2]: 0.7 ± 0.02 µM
- IC50 [4]: 0.3 ± 0.03 µM
- IC50 [5]: 5.59 ± 0.21 µM

Compound: CSCC[C@@H]1NC(=O)CNC(=O)CNC(=O)[C@H](C)NC(=O)[C@H](C(C)C)NC(=O)CNC(=O)[C@H](CC(C)C)NC(=O)[C@@H]2CCCN2C(=O)[C@H](CC(=O)O)NC(=O)[C@H](CCC(=O)O)NC(=O)[C@H](Cc2ccc(O)cc2)NC(=O)[C@H](CC(C)C)NC(=O)[C@H](CO)NC(=O)[C@H](C(C)C)NC(=O)[C@H]2CCCN2C(=O)CNC(=O)[C@H](Cc2ccc(O)cc2)NC(=O)[C@H](C(C)C)NC(=O)CNC1=O [CP4]
- Neutralization activity against H5N1 virus (in words) [9]: complete abolishment of neutralization activity
- IC50 [1]: 0.39 ± 0.04 µM
- IC50 [2]: 0.075 ± 0.01 µM
- IC50 [4]: 0.1 µM
- IC50 [5]: 0.76 ± 0.086 µM
- half-life / residence time t1/2 (range over HAs) [6]: 2 to 16 s
- koff (range over HAs) [6]: 0.04–0.32

Compound: CSCC[C@@H]1NC(=O)CNC(=O)CNC(=O)[C@H](C)NC(=O)[C@H](C(C)C)NC(=O)CNC(=O)[C@H](CC(C)C)NC(=O)[C@@H]2CCCN2C(=O)[C@H](CC(=O)O)NC(=O)[C@H](CCC(=O)O)NC(=O)[C@H](Cc2ccc(O)cc2)NC(=O)[C@@H](NC(=O)CCC(=O)O)CSSC[C@@H](C(N)=O)NC1=O [CP12]
- IC50 [2]: 4.95 ± 0.38 µM
- IC50 [4]: 6.38 ± 0.17 µM
- IC50 [5]: 28.8 ± 10.2 µM

Compound: CSCC[C@@H]1NC(=O)CNC(=O)CNC(=O)[C@H](C)NC(=O)[C@H](C(C)C)NC(=O)CNC(=O)[C@H](CC(C)C)NC(=O)[C@@H]2CCCN2C(=O)[C@H](CC(=O)O)NC(=O)[C@H](CCC(=O)O)NC(=O)[C@H](Cc2ccc(O)cc2)NC(=O)[C@H](CC(C)C)NC(=O)[C@H](CO)NC(=O)CNC(=O)[C@H]2CCCN2C(=O)[C@H](C(C)C)NC(=O)CNC1=O [CP5]
- IC50 [1]: 17 ± 4.58 µM
- IC50 [4]: 4.63 µM

Compound: CSCC[C@@H]1NC(=O)[C@H](CCC(=O)O)NC(=O)CNC(=O)[C@H](C)NC(=O)[C@H](C(C)C)NC(=O)CNC(=O)[C@H](CC(C)C)NC(=O)[C@@H]2CCCN2C(=O)[C@H](CC(=O)O)NC(=O)[C@H](CCCNC(=N)N)NC(=O)[C@H](Cc2ccc(O)cc2)NC(=O)[C@H](CC(C)C)NC(=O)[C@@H](NC(=O)CCC(=O)O)CSSC[C@@H](C(N)=O)NC(=O)CNC1=O [CP10] (Suc-CLYRDPLGVAGEMGC-NH2; disulfide 1-15)
- IC50 [1]: 0.46 ± 0.04 µM
- IC50 [2]: 2.93 ± 0.32 µM
- IC50 [4]: 0.61 ± 0.08 µM
- IC50 [5]: 7.61 ± 1.56 µM
